# Laboratory results taken from article PMC12434668 (Journal of Medicinal Chemistry, 2025).
# Where “and” joins values, the source holds several entries; their conditions need not be identical. Identical values can stand only once. Like-named read-outs stand apart in the source and are kept apart here.
# Columns and labels:
# [1] = Mouse pharmacokinetic analyses (i.v. and oral); format: in vivo; settings: plasma, iv
# Protocol: For PK analysis, mice were administered intravenously or orally with compound formulated in 10% ethanol and 10% Cremophor EL. Compound 13 dosing was also screened with 20% Phosphal IPG, 20% Phosphal MCT, 10% HP-β-CD, and 40% HP-β-CD. Plasma samples were obtained at predefined time points and compound concentrations in plasma were measured by quantitative HPLC–MS/MS using an internal standard. Calibration and quality control samples were prepared using blank plasma from untreated animals. Samples were precipitated with acetonitrile and injected into a HPLC system (Agilent 1200). Separation was performed by gradients of 5 mmol/L ammonium acetate pH 5.0 and acetonitrile with 0.1% formic acid on a Luna C8 reversed-phase column with 2.5 μm particles (Phenomenex). The HPLC was interfaced by ESI operated in positive ionization mode to a triple quadrupole mass spectrometer (6500+ Triple Quad System, SCIEX) operated in multiple reaction monitoring mode. Chromatograms were analyzed with Analyst (SCIEX) and pharmacokinetic parameters were calculated by noncompartmental analysis using proprietary software.
# [2] = molecular target: T1, Mcl-1 (Homo sapiens, UniProt Q07820); assay: TR-FRET binding assay (FITC-Bak peptide competition)
# T1 construct: Briefly, a previously reported construct was subcloned into an expression vector (pDEST-HisMBP); MBP (from vector pDEST-HisMBP); made in house; host or cells: Escherichia coli BL21 CodonPlus (DE3) RIL
# T1 sequence (Q07820 whole entry): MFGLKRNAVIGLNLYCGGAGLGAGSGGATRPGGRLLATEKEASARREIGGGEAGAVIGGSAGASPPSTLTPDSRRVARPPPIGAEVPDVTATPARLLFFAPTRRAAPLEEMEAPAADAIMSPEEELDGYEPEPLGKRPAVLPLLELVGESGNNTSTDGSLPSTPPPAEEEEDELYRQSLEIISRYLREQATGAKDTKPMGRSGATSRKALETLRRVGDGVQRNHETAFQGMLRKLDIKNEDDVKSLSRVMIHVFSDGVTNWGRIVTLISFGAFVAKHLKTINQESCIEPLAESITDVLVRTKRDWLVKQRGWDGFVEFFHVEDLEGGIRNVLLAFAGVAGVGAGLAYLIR
# Description: Protein preparation was described previously. Briefly, a previously reported construct was subcloned into an expression vector (pDEST-HisMBP) expressed in Escherichia coli BL21 CodonPlus (DE3) RIL (Stratagene) and purified through nickel-column and size-exclusion chromatography sequentially.
# Mixtures containing vehicle without compound served as a negative control, while mixtures containing no protein served as a positive control. […] Two or more repeats were obtained and average K i values are reported.
# [3] = test system: NCI-H929 cells; assay: In vitro proliferation assay (CellTiter-Glo), H929; format: cell-based; settings: Homo sapiens
# Protocol: (§1) NCI-H929, A427, and K562 cell lines were obtained from ATCC. NCI-H929 cells were cultured in RPMI1640 (ATCC-formulated, Catalog No. 30-2001) + 10% fetal calf serum (FCS, GIBCO BRL, Cat. No. 26140) + 0.05 mM mercaptoethanol. A-427 cells were cultured in RPMI1640 (ATCC-formulated, Catalog No. 30-2001) + 10% fetal calf serum (FCS, GIBCO BRL, Cat. No. 26140). K562 cell lines were cultured in Iscove’s Modified Dulbecco Medium (Gibco-formulated, purchased from Thermo-Fisher, Cat. No. 12440-053) + 10% fetal bovine serum (FBS, Sigma-Aldrich, F2442). All cell lines were cultured at 37 °C with 5% CO2 in a humidified incubator and have been regularly tested negatively for mycoplasm contamination.
# (§2) Cells were seeded at 750–1500 cells per well (depending on growth kinetics) in 384-well plates (Corning, Catalog No. 3707) or at 3000 cells per well in 96-well plates in the respective growth medium and allowed to settle overnight. Suspension cells were plated immediately before compound addition. Adherent cell lines were incubated overnight at 37 °C in a tissue culture incubator prior to compound addition. Compounds were added in triplicates using an HP D300e Digital Dispenser (Hewlett-Packard) or manually at the concentrations indicated and total volumes were normalized using DMSO backfill, with final DMSO concentration of 0.5%. Control wells were treated with DMSO only. Following incubation for 72 or 96 h, a Cell Titer-Glo assay was conducted following the manufacturer recommendations (Promega, G9243) and luminescence was measured using a Victor X5 (PerkinElmer) or a Cytation 3 (Biotek) plate reader. % Viability was defined as relative luminescence units (RLU) of each well divided by the RLU of cells on day 0. Four parameter sigmoidal dose–response curves were generated and IC50 values were determined using XLFit (IDBS) software (eq 205) or in-house software. Drug combination experiments were performed in 96-well or 384-well format and drug synergy was determined using the BLISS model (PMID: 26171228).
# [4] = test system: A427 cells; assay: In vitro proliferation assay (CellTiter-Glo), A427; format: cell-based; settings: Homo sapiens, A-427
# Protocol: as §1, §2
# [5] = test system: K562 cells; assay: In vitro proliferation counterscreen, Mcl-1 insensitive K562; format: cell-based; settings: Homo sapiens; Mcl-1 insensitive K562; top concentration tested 12.5 µM
# Protocol: NCI-H929, A427, and K562 cell lines were obtained from ATCC.
# Suspension cells were plated immediately before compound addition. Adherent cell lines were incubated overnight at 37 °C in a tissue culture incubator prior to compound addition. Compounds were added in triplicates using an HP D300e Digital Dispenser (Hewlett-Packard) or manually at the concentrations indicated and total volumes were normalized using DMSO backfill, with final DMSO concentration of 0.5%. Control wells were treated with DMSO only. Following incubation for 72 or 96 h, a Cell Titer-Glo assay was conducted following the manufacturer recommendations (Promega, G9243) and luminescence was measured using a Victor X5 (PerkinElmer) or a Cytation 3 (Biotek) plate reader. % Viability was defined as relative luminescence units (RLU) of each well divided by the RLU of cells on day 0.
# [6] = test system: caspase 3/7 in H929 cells; assay: Caspase 3/7 induction assay (Caspase-Glo), H929; format: cell-based; settings: compound treatment for 3 h; for EC50: Homo sapiens, NCI-H929
# Protocol: (§3) Cells were treated with a 10-point compound titration and incubated at 37 °C for 3 h.
# [7] = test system: caspase 3/7 in A427 cells; assay: Caspase 3/7 induction assay (Caspase-Glo), A427; format: cell-based; settings: compound treatment for 3 h; for EC50: Homo sapiens, A-427
# Protocol: as §3
# [8] = test system: caspase 3/7 in K562 cells; assay: Caspase 3/7 induction assay (Caspase-Glo), K562; format: cell-based; settings: compound treatment for 3 h; for EC50: Homo sapiens, K562
# Protocol: as §3
# [9] = dosed at 20 mg/kg, read-out: i.v. mouse CL
# [10] = supplementary CSV, unit not given (Table 1: 20 mg/kg, 14 and 16 at 10 mg/kg), read-out: CL
# [11] = in the presence of 1% fetal bovine serum, average of at least n = 2, read-out: TRFRET, Mcl-1 Ki
# [12] = supplementary CSV, unit inferred, read-out: Ki TRFRET
# [13] = supplementary CSV, unit inferred
# [14] = H929 cell line, average of at least n = 2, triplicate
# [15] = A427 cell line, average of at least n = 2, triplicate
# [16] = dosed at 10 mg/kg, read-out: i.v. mouse CL
SMILES,"clearance [1, 9]","clearance [1, 10]","Ki [2, 11]","Ki [2, 12]","GI50 [3, 13]","GI50 [4, 13]",GI50 [5],"GI50 [3, 14]","GI50 [4, 15]",EC50 [6],"H929 Caspase 3/7 maximum activity, fold over vehicle (FoV) [6]",EC50 [7],A427 Caspase 3/7 fold over vehicle (FoV) [7],EC50 [8],K562 Caspase 3/7 fold over vehicle (FoV) [8],"clearance [1, 16]"
COc1cc(N2C[C@@H](C)n3c(c(CCCOc4cc(C)c(Cl)c(C)c4)c4ccc(Cl)c(-c5c(C)nn(C)c5C)c43)C2=O)c2c(cc(C(=O)O)n2C)c1OC [Compound 9],70 mL/min/kg,70 mL/min/kg,–,–,–,–,–,–,–,–,–,–,–,–,–,–
"COc1cc2c3c(cc(C(=O)O)n3CCCOCc3c(c(C)nn3C)-c3c(Cl)ccc4c(CCCOc5cc(C)c(Cl)c(C)c5)c5n(c34)[C@H](C)CN2C5=O)c1OC [Compound 11, (2^63^4 S a ,1^72^2 R a ,2^4 R)-2^7-Chloro-2^10-(3-(4-chloro-3,5-dimethylphenoxy)propyl)-1^4,1^5-dimethoxy-2^4,3^1,3^3-trimethyl-2^1-oxo-2^1,2^2,2^3,2^4-tetrahydro-1^1 H,3^1 H-5-oxa-2(2,6)-pyrazino[1,2-a]indola-1(7,1)-indola-3(4,5)-pyrazolacyclooctaphane-1^2-carboxylic Acid]",–,–,0.08 ± 0.01 nM,0.04 nM,24 nM,64 nM,> 12500 nM,–,–,–,–,–,–,–,–,–
"COc1cc2c3c(cc(C(=O)O)n3CCCCOCc3nn(C)c(C)c3-c3c(Cl)ccc4c(CCCOc5cc(C)c(Cl)c(C)c5)c5n(c34)[C@H](C)CN2C5=O)c1OC [Compound 12, (2^63^4 S a ,1^72^2 R a ,24R)-2^7-Chloro-2^10-(3-(4-chloro-3,5-dimethylphenoxy)propyl)-1^4,1^5-dimethoxy-2^4,3^1,3^5-trimethyl-2^1-oxo-2^1,2^2,2^3,2^4-tetrahydro-1^1 H,3^1 H-5-oxa-2(2,6)-pyrazino[1,2-a]indola-1(7,1)-indola-3(4,3)-pyrazolacyclononaphane-1^2-carboxylic Acid]",–,–,–,0.12 nM,39 nM,87 nM,> 7800 nM,–,–,–,–,–,–,–,–,–
"Cc1cc2c3c(c1)cc(C(=O)O)n3CCCOCc1nn(C)cc1-c1c(Cl)ccc3c(CCCOc4cc(C)c(Cl)c(C)c4)c4n(c13)[C@H](C)CN2C4=O [Compound 14, (2^63^4 S a ,1^72^2 R a ,2^4 R)-2^7-Chloro-2^10-(3-(4-chloro-3,5-dimethylphenoxy)propyl)-1^5,2^4,3^1-trimethyl-2^1-oxo-2^1,2^2,2^3,2^4-tetrahydro-1^1 H,3^1 H-5-oxa-2(2,6)-pyrazino[1,2-a]indola-1(7,1)-indola-3(4,3)-pyrazolacyclooctaphane-1^2-carboxylic Acid]",–,8.4 mL/min/kg,< 0.08 nM,0.03 nM,–,–,> 10200 nM,64 ± 17 nM,195 ± 14 nM,45 nM,17 fold,35 nM,16 fold,> 3120 nM,1.3 fold,8.4 mL/min/kg
"COc1cc2c3c(c1)cc(C(=O)O)n3CCCOCc1nn(C)cc1-c1c(Cl)ccc3c(CCCOc4cc(C)c(Cl)c(C)c4)c4n(c13)[C@H](C)CN2C4=O [Compound 15, (2^63^4 S a ,1^72^2 R a ,2^4 R)-2^7-Chloro-2^10-(3-(4-chloro-3,5-dimethylphenoxy)propyl)-1^5-methoxy-2^4,3^1-dimethyl-2^1-oxo-2^1,2^2,2^3,2^4-tetrahydro-1^1 H,3^1 H-5-oxa-2(2,6)-pyrazino[1,2-a]indola-1(7,1)-indola-3(4,3)-pyrazolacyclooctaphane-1^2-carboxylic Acid]",–,–,< 0.08 nM,0.04 nM,–,–,> 12500 nM,38 ± 11 nM,60 ± 24 nM,43 nM,17 fold,34 nM,15 fold,> 3120 nM,1.3 fold,–
"COc1ccc2c3c1cc(C(=O)O)n3CCCOCc1nn(C)cc1-c1c(Cl)ccc3c(CCCOc4cc(C)c(Cl)c(C)c4)c4n(c13)[C@H](C)CN2C4=O [Compound 16, (2^63^4 S a ,1^72^2 R a ,2^4 R)-2^7-Chloro-2^10-(3-(4-chloro-3,5-dimethylphenoxy)propyl)-1^4-methoxy-2^4,3^1-dimethyl-2^1-oxo-2^1,2^2,2^3,2^4-tetrahydro-1^1 H,3^1 H-5-oxa-2(2,6)-pyrazino[1,2-a]indola-1(7,1)-indola-3(4,3)-pyrazolacyclooctaphane-1^2-carboxylic Acid]",–,17.3 mL/min/kg,< 0.08 nM,–,–,–,> 12500 nM,27 ± 3 nM,45 ± 17 nM,16 nM,16 fold and 16 (16) fold,24 nM,15 fold,> 3120 nM,1.3 fold,17.3 mL/min/kg
"COc1cc2c3c(cc(C(=O)O)n3CCCOCc3nn(C)cc3-c3cccc4c(CCCOc5cc(C)c(Cl)c(C)c5)c5n(c34)[C@H](C)CN2C5=O)c1OC [Compound 23, (2^63^4 R a ,1^72^2 R a ,2^4 R)-2^10-(3-(4-Chloro-3,5-dimethylphenoxy)propyl)-1^4,1^5-dimethoxy-2^4,3^1-dimethyl-2^1-oxo-2^1,2^2,2^3,2^4-tetrahydro-1^1 H,3^1 H-5-oxa-2(2,6)-pyrazino[1,2-a]indola-1(7,1)-indola-3(4,3)-pyrazolacyclooctaphane-1^2-carboxylic Acid]",–,–,< 0.08 nM,< 0.02 nM,–,–,> 12500 nM,15 ± 4 nM,32 ± 4 nM,–,–,–,–,–,–,–
"COc1c(OCC2CCOCC2)cc(N2C[C@@H](C)n3c(c(CCCOc4cc(C)c(Cl)c(C)c4)c4ccc(Cl)c(-c5c(C)nc(C)nc5C)c43)C2=O)c2c1cc(C(=O)N(C)C)n2C [Compound 24, (R)-7-(7-chloro-10-(3-(4-chloro-3,5-dimethylphenoxy)propyl)-4-methyl-1-oxo-6-(2,4,6-trimethylpyrimidin-5-yl)-3,4-dihydropyrazino[1,2-a]indol-2(1H)-yl)-4-methoxy-N,N,1-trimethyl-5-((tetrahydro-2H-pyran-4-yl)methoxy)-1H-indole-2-carboxamide]",2 mL/min/kg,2 mL/min/kg,105 ± 8 nM,–,–,–,> 12500 nM,1100 ± 380 nM,3600 ± 140 nM,–,–,–,–,–,–,–
